≈ marks a conversion by molar mass, not a printed value.
Columns and labels:
[1] = Cytotoxicity in tissue culture (monolayered HeLa cells); type: cell-based; settings: human, observed at 48 and 72 hours post-treatment, read-out: Cytotoxicity (concentration of compound found to be toxic to the cell)
Description: (§1) Monolayered HeLa cells in 16 millimeter (mm) tissue culture dishes were treated with 1 ml of culture medium (Eagles medium supplemented with fetal calf serum) containing compound at 100, 50, 25, 12.5, 6.25 or 0 μg/ml. Culture mediums such as those described herein are more fully described in standard tests, as for example, Kuchler's Biochemical Methods in Cell Culture and Virology, Dowden, Hutchinson and Ross, Inc., Stroudsberg, PA (1977). Immediately following treatment, cells were challenged with 0.05 ml of rhinovirus type 1A (RV-1A), rhinovirus type 2 (RV-2) or coxsackie A21 virus (Cox A21) in culture medium. Cell controls received no virus.
*Cytotoxicity figures represent the concentration of compound (μg/ml)
found to be toxic to the cell.

[2] = tested on: rhinovirus type 1A (RV-1A); assay: Tissue culture antiviral testing, RV-1A (viral cytopathic effect in HeLa cells); type: cell-based; settings: Enterovirus, 48 and 72 hours post-treatment, read-out: Lowest concentration of compound necessary to cause a 50 percent reduction in cytopathic effect, RV-1A
Description: as §1
(§2) **Lowest concentration of compound (μg/ml) necessary to cause a 50
(§3) percent reduction in cytopathic effect.

rhinovirus type 2 (RV-2) = assay: Tissue culture antiviral testing, RV-2 (viral cytopathic effect in HeLa cells); type: cell-based; settings: Enterovirus, 48 and 72 hours post-treatment, read-out: Lowest concentration of compound necessary to cause a 50 percent reduction in cytopathic effect, RV-2
Description: as §1, §2, §3

[3] = tested on: coxsackie A21 virus (Cox A21); assay: Tissue culture antiviral testing, Cox A21 (viral cytopathic effect in HeLa cells); type: cell-based; settings: 48 and 72 hours post-treatment, read-out: Lowest concentration of compound necessary to cause a 50 percent reduction in cytopathic effect, Cox A21
Description: as §1, §2, §3

Cox A21 virus = assay: Animal testing, mice challenged intraperitoneally with a normally lethal dose of Cox A21 virus; type: in vivo, Swiss male mice; settings: 600 mg/kg PO; at the 95 percent confidence level
Description: The subject compounds were also tested in animals as follows:
Swiss male mice, 10-12 g in weight, were challenged intraperitoneally (IP) with 0.2 ml of a normally lethal dose, i.e., a virus dose sufficient to cause .congruent.80-100 percent mortality in infected animals within 10 days of challenge, of Cox A21 virus in phosphate buffered saline containing 1 percent heat inactivated fetal calf serum. Three hours later, mice were treated orally (PO) with 0.2 ml of compound suspended in 0.5 percent hydroxypropyl methylcellulose (Methocel) or with 0.2 ml of Methocel alone. The test compounds were administered at a 30 milligram/milliliter (mg/ml) concentration, which is a 600 milligram/kilogram (mg/kg) dosage. Mice were counted daily for 7-10 days post-challenge and deaths recorded. A modified Mantel-Haenzel combined chi-square (X^2) procedure was used to determine significant difference between virus control and treated groups. Chi-square values greater than 3.84 are considered significant (95 percent confidence level) in this test.

| Structure (SMILES) | MCC [1] | EC50 [2] | EC50 (rhinovirus type 2 (RV-2)) | EC50 [3] | Antiviral activity in testing with mice (in words) (Cox A21 virus) |
| --- | --- | --- | --- | --- | --- |
| O=[N+]([O-])c1cccc(CN(Cc2cccc([N+](=O)[O-])c2)c2ccc(S(=O)(=O)O)cc2)c1 [Example 1, 4-(Bis((3-nitrophenyl)methyl)amino)benzenesulfonic Acid] | 25 µg/mL | 6.25 mg/L (≈ 14.1 µM) | > 100 mg/L | < 6.25 mg/L | – |
| O=S(=O)(O)c1ccc(N(Cc2c(Cl)cccc2Cl)Cc2c(Cl)cccc2Cl)cc1 [Example 2, 4-(Bis((2,6-dichlorophenyl)methyl)amino)benzenesulfonic Acid] | 12.5 µg/mL | 6.25 mg/L (≈ 12.7 µM) | 12.5 mg/L (≈ 25.4 µM) | < 6.25 mg/L | – |
| O=S(=O)(O)c1ccc(N(Cc2ccc(F)cc2)Cc2ccc(F)cc2)cc1 [Example 3, 4-(Bis((4-fluorophenyl)methyl)amino)benzenesulfonic Acid] | 100 µg/mL | 12.5 mg/L (≈ 32.1 µM) | > 100 mg/L | < 6.25 mg/L | active antiviral compounds in testing with mice |
| O=S(=O)(O)c1ccc(N(Cc2ccc(F)cc2)Cc2ccc(Cl)cc2)cc1 [Example 4, 4-(((4-Chlorophenyl)methyl)((4-fluorophenyl)-methyl)amino)benzenesulfonic Acid] | 50 µg/mL | 50 mg/L (≈ 123 µM) | > 100 mg/L | < 6.25 mg/L | active antiviral compounds in testing with mice |
| O=S(=O)(O)c1ccc(N(Cc2ccc(Cl)cc2)Cc2ccc(Cl)cc2)cc1 [Example 5, 4-(Bis((4-chlorophenyl)methyl)amino)benzenesulfonic Acid] | 25 µg/mL | 12.5 mg/L (≈ 29.6 µM) | > 100 mg/L | < 6.25 mg/L | active antiviral compounds in testing with mice |
| O=S(=O)(O)c1ccc(N(Cc2cccc(Cl)c2)Cc2cccc(Cl)c2)cc1 [Example 6, 4-(Bis((3-chlorophenyl)methyl)amino)benzenesulfonic Acid] | 100 µg/mL | > 50 mg/L | > 100 mg/L | < 6.25 mg/L | active antiviral compounds in testing with mice |
| O=S(=O)(O)c1ccc(N(Cc2ccc(Br)cc2)Cc2ccc(Br)cc2)cc1 [Example 7, 4-(Bis((4-bromophenyl)methyl)amino)benzenesulfonic Acid] | 25 µg/mL | 12.5 mg/L (≈ 24.5 µM) | > 100 mg/L | < 6.25 mg/L | active antiviral compounds in testing with mice |
| O=S(=O)(O)c1ccc(N(Cc2ccccc2F)Cc2ccccc2F)cc1 [Example 8, 4-(Bis((2-fluorophenyl)methyl)amino)benzenesulfonic Acid] | 100 µg/mL | > 100 mg/L | > 100 mg/L | < 6.25 mg/L | – |
| O=S(=O)(O)c1ccc(N(Cc2cccc(F)c2)Cc2cccc(F)c2)cc1 [Example 9, 4-(Bis((3-fluorophenyl)methyl)amino)benzenesulfonic Acid] | 100 µg/mL | 50 mg/L (≈ 128 µM) | > 100 mg/L | 12.5 mg/L (≈ 32.1 µM) | active antiviral compounds in testing with mice |

From patent US4277492A, “Novel 4-bis((Phenylmethyl)amino)-benzenesulfonic acids possessing antiviral activity” (priority 1980, dated 1981)
